Test results reported in US20140357713A1, “ANTIMICROBIAL COMPOUNDS AND METHODS OF USE” (NexMed Holdings, Inc., priority 2012, published 2014).

Assays:
[1] = Solubility (Sol., Table 1); assay type: physicochemical
Pseudomonas aeruginosa = assay: Extended time kill study, Example 34 (0 to 24 h); assay type: cell-based
Description: (§1) Time kill studies. Strain suspensions were prepared as described above for the MIC test, and strain suspensions and compound solutions were mixed in the same volume. Samples were removed at specified times including 0 min, 30 sec, 1 min and 5 mins, were diluted in the test medium and streaked on agar. Colonies were counted after 24 to 48 hrs of incubation.
(§2) The time kill studies of Example 33 were extended for five compounds (Nex-59, Nex-60, Nex-61, Nex-62, and Nex-88) using the same methods at longer time periods and at higher multiples of MIC. Nex-88 is a code number for DDAIP.HCl from a different supplier.

Candida albicans = assay: Extended time kill study, Example 34 (0 to 24 h); assay type: cell-based
Description: as §1, §2

Staphylococcus aureus = assay: Extended time kill study, Example 34 (0 to 24 h); assay type: cell-based
Description: as §1, §2

Escherichia coli = assay: Extended time kill study, Example 34 (0 to 24 h); assay type: cell-based
Description: as §1, §2

Aspergillus niger = assay: Extended time kill study, Example 34 (0 to 24 h); assay type: cell-based
Description: as §1, §2

CCCCCCCCCCCCOC(=O)C(C)NC(C)C.Cl (stereo not shown) [Nex-60, Dodecyl 2-(isopropylamino)propanoate hydrochloride]
Sol. [1]: 46% | Viable counts, Pseudomonas aeruginosa time kill study (Pseudomonas aeruginosa; 1 × MIC, 1 h): <1 Log10 CFU/mL | Viable counts, Pseudomonas aeruginosa time kill study (Pseudomonas aeruginosa; 1 × MIC, 2 h): <1 Log10 CFU/mL | Viable counts, Pseudomonas aeruginosa time kill study (Pseudomonas aeruginosa; 1 × MIC, 4 h): <1 Log10 CFU/mL | Viable counts, Pseudomonas aeruginosa time kill study (Pseudomonas aeruginosa; 1 × MIC, 6 h): <1 Log10 CFU/mL | Viable counts, Pseudomonas aeruginosa time kill study (Pseudomonas aeruginosa; 1 × MIC, 24 h): <1 Log10 CFU/mL | Viable counts, Pseudomonas aeruginosa time kill study (Pseudomonas aeruginosa; 1×MIC, time 0): 5.30 Log10 CFU/mL | Viable counts, Pseudomonas aeruginosa time kill study (Pseudomonas aeruginosa; 2 × MIC, 1 h): <1 Log10 CFU/mL | Viable counts, Pseudomonas aeruginosa time kill study (Pseudomonas aeruginosa; 2 × MIC, 2 h): <1 Log10 CFU/mL | Viable counts, Pseudomonas aeruginosa time kill study (Pseudomonas aeruginosa; 2 × MIC, 4 h): <1 Log10 CFU/mL | Viable counts, Pseudomonas aeruginosa time kill study (Pseudomonas aeruginosa; 2 × MIC, 6 h): <1 Log10 CFU/mL | Viable counts, Pseudomonas aeruginosa time kill study (Pseudomonas aeruginosa; 2 × MIC, 24 h): <1 Log10 CFU/mL | Viable counts, Pseudomonas aeruginosa time kill study (Pseudomonas aeruginosa; 2 × MIC, time 0): 5.28 Log10 CFU/mL | Viable counts, Pseudomonas aeruginosa time kill study (Pseudomonas aeruginosa; 4 × MIC, 1 h): <1 Log10 CFU/mL | Viable counts, Pseudomonas aeruginosa time kill study (Pseudomonas aeruginosa; 4 × MIC, 2 h): <1 Log10 CFU/mL | Viable counts, Pseudomonas aeruginosa time kill study (Pseudomonas aeruginosa; 4 × MIC, 4 h): <1 Log10 CFU/mL | Viable counts, Pseudomonas aeruginosa time kill study (Pseudomonas aeruginosa; 4 × MIC, 6 h): <1 Log10 CFU/mL | Viable counts, Pseudomonas aeruginosa time kill study (Pseudomonas aeruginosa; 4 × MIC, 24 h): <1 Log10 CFU/mL | Viable counts, Pseudomonas aeruginosa time kill study (Pseudomonas aeruginosa; 4 × MIC, time 0): 5.31 Log10 CFU/mL | Viable counts in Log10 CFU/mL (Candida albicans; 1 × MIC, 1 h): 5.51 Log10 CFU/mL | Viable counts in Log10 CFU/mL (Candida albicans; 1 × MIC, 2 h): 5.50 Log10 CFU/mL | Viable counts in Log10 CFU/mL (Candida albicans; 1 × MIC, 4 h): 5.18 Log10 CFU/mL | Viable counts in Log10 CFU/mL (Candida albicans; 1 × MIC, 6 h): 5.09 Log10 CFU/mL | Viable counts in Log10 CFU/mL (Candida albicans; 1 × MIC, 24 h): >6 Log10 CFU/mL | Viable counts in Log10 CFU/mL (Candida albicans; 1 × MIC, 0 h): 5.56 Log10 CFU/mL | Viable counts in Log10 CFU/mL (Candida albicans; 2 × MIC, 1 h): 3.30 Log10 CFU/mL | Viable counts in Log10 CFU/mL (Candida albicans; 2 × MIC, 2 h): 3.00 Log10 CFU/mL | Viable counts in Log10 CFU/mL (Candida albicans; 2 × MIC, 4 h): 3.00 Log10 CFU/mL | Viable counts in Log10 CFU/mL (Candida albicans; 2 × MIC, 6 h): <2.70 Log10 CFU/mL | Viable counts in Log10 CFU/mL (Candida albicans; 2 × MIC, 24 h): <1 Log10 CFU/mL | Viable counts in Log10 CFU/mL (Candida albicans; 2 × MIC, 0 h): 5.51 Log10 CFU/mL | Viable counts in Log10 CFU/mL (Candida albicans; 4 × MIC, 1 h): 3.78 Log10 CFU/mL | Viable counts in Log10 CFU/mL (Candida albicans; 4 × MIC, 2 h): 3.30 Log10 CFU/mL | Viable counts in Log10 CFU/mL (Candida albicans; 4 × MIC, 4 h): 3.00 Log10 CFU/mL | Viable counts in Log10 CFU/mL (Candida albicans; 4 × MIC, 6 h): <2.70 Log10 CFU/mL | Viable counts in Log10 CFU/mL (Candida albicans; 4 × MIC, 24 h): <1 Log10 CFU/mL | Viable counts in Log10 CFU/mL (Candida albicans; 4 × MIC, 0 h): 5.62 Log10 CFU/mL | Viable counts, Staphylococcus aureus time kill study (Staphylococcus aureus; 1 × MIC, 1 h): 6.23 Log10 CFU/mL | Viable counts, Staphylococcus aureus time kill study (Staphylococcus aureus; 1 × MIC, 2 h): 6.24 Log10 CFU/mL | Viable counts, Staphylococcus aureus time kill study (Staphylococcus aureus; 1 × MIC, 4 h): 6.16 Log10 CFU/mL | Viable counts, Staphylococcus aureus time kill study (Staphylococcus aureus; 1 × MIC, 6 h): 5.97 Log10 CFU/mL | Viable counts, Staphylococcus aureus time kill study (Staphylococcus aureus; 1 × MIC, 24 h): 6.57 Log10 CFU/mL | Viable counts, Staphylococcus aureus time kill study (Staphylococcus aureus; 1×MIC, time 0): 6.22 Log10 CFU/mL | Viable counts, Staphylococcus aureus time kill study (Staphylococcus aureus; 2 × MIC, 1 h): <3 Log10 CFU/mL | Viable counts, Staphylococcus aureus time kill study (Staphylococcus aureus; 2 × MIC, 2 h): <3 Log10 CFU/mL | Viable counts, Staphylococcus aureus time kill study (Staphylococcus aureus; 2 × MIC, 4 h): <3 Log10 CFU/mL | Viable counts, Staphylococcus aureus time kill study (Staphylococcus aureus; 2 × MIC, 6 h): <3 Log10 CFU/mL | Viable counts, Staphylococcus aureus time kill study (Staphylococcus aureus; 2 × MIC, 24 h): <1 Log10 CFU/mL | Viable counts, Staphylococcus aureus time kill study (Staphylococcus aureus; 2 × MIC, time 0): 6.20 Log10 CFU/mL | Viable counts, Staphylococcus aureus time kill study (Staphylococcus aureus; 4 × MIC, 1 h): <3 Log10 CFU/mL | Viable counts, Staphylococcus aureus time kill study (Staphylococcus aureus; 4 × MIC, 2 h): <3 Log10 CFU/mL | Viable counts, Staphylococcus aureus time kill study (Staphylococcus aureus; 4 × MIC, 4 h): <3 Log10 CFU/mL | Viable counts, Staphylococcus aureus time kill study (Staphylococcus aureus; 4 × MIC, 6 h): <3 Log10 CFU/mL | Viable counts, Staphylococcus aureus time kill study (Staphylococcus aureus; 4 × MIC, 24 h): <1 Log10 CFU/mL | Viable counts, Staphylococcus aureus time kill study (Staphylococcus aureus; 4 × MIC, time 0): 6.21 Log10 CFU/mL | Viable counts, Escherichia coli time kill study (Escherichia coli; 1 × MIC, 1 h): <1 Log10 CFU/mL | Viable counts, Escherichia coli time kill study (Escherichia coli; 1 × MIC, 2 h): <1 Log10 CFU/mL | Viable counts, Escherichia coli time kill study (Escherichia coli; 1 × MIC, 4 h): <1 Log10 CFU/mL | Viable counts, Escherichia coli time kill study (Escherichia coli; 1 × MIC, 6 h): <1 Log10 CFU/mL | Viable counts, Escherichia coli time kill study (Escherichia coli; 1 × MIC, 24 h): <1 Log10 CFU/mL | Viable counts, Escherichia coli time kill study (Escherichia coli; 1×MIC, time 0): 5.02 Log10 CFU/mL | Viable counts, Escherichia coli time kill study (Escherichia coli; 2 × MIC, 1 h): <1 Log10 CFU/mL | Viable counts, Escherichia coli time kill study (Escherichia coli; 2 × MIC, 2 h): <1 Log10 CFU/mL | Viable counts, Escherichia coli time kill study (Escherichia coli; 2 × MIC, 4 h): <1 Log10 CFU/mL | Viable counts, Escherichia coli time kill study (Escherichia coli; 2 × MIC, 6 h): <1 Log10 CFU/mL | Viable counts, Escherichia coli time kill study (Escherichia coli; 2 × MIC, 24 h): <1 Log10 CFU/mL | Viable counts, Escherichia coli time kill study (Escherichia coli; 2 × MIC, time 0): 5.14 Log10 CFU/mL | Viable counts, Escherichia coli time kill study (Escherichia coli; 4 × MIC, 1 h): <1 Log10 CFU/mL | Viable counts, Escherichia coli time kill study (Escherichia coli; 4 × MIC, 2 h): <1 Log10 CFU/mL | Viable counts, Escherichia coli time kill study (Escherichia coli; 4 × MIC, 4 h): <1 Log10 CFU/mL | Viable counts, Escherichia coli time kill study (Escherichia coli; 4 × MIC, 6 h): <1 Log10 CFU/mL | Viable counts, Escherichia coli time kill study (Escherichia coli; 4 × MIC, 24 h): <1 Log10 CFU/mL | Viable counts, Escherichia coli time kill study (Escherichia coli; 4 × MIC, time 0): 5.07 Log10 CFU/mL | Viable counts in Log10 CFU/mL (Aspergillus niger; 1 × MIC, 1 h): 4.60 Log10 CFU/mL | Viable counts in Log10 CFU/mL (Aspergillus niger; 1 × MIC, 2 h): 4.78 Log10 CFU/mL | Viable counts in Log10 CFU/mL (Aspergillus niger; 1 × MIC, 4 h): 4.60 Log10 CFU/mL | Viable counts in Log10 CFU/mL (Aspergillus niger; 1 × MIC, 6 h): 4.30 Log10 CFU/mL | Viable counts in Log10 CFU/mL (Aspergillus niger; 1 × MIC, 24 h): 3.81 Log10 CFU/mL | Viable counts in Log10 CFU/mL (Aspergillus niger; 1 × MIC, 0 h): 5.52 Log10 CFU/mL | Viable counts in Log10 CFU/mL (Aspergillus niger; 2 × MIC, 1 h): 4.30 Log10 CFU/mL | Viable counts in Log10 CFU/mL (Aspergillus niger; 2 × MIC, 2 h): 4.78 Log10 CFU/mL | Viable counts in Log10 CFU/mL (Aspergillus niger; 2 × MIC, 4 h): 3.85 Log10 CFU/mL | Viable counts in Log10 CFU/mL (Aspergillus niger; 2 × MIC, 6 h): 3.78 Log10 CFU/mL | Viable counts in Log10 CFU/mL (Aspergillus niger; 2 × MIC, 24 h): 4.30 Log10 CFU/mL | Viable counts in Log10 CFU/mL (Aspergillus niger; 2 × MIC, 0 h): 5.47 Log10 CFU/mL | Viable counts in Log10 CFU/mL (Aspergillus niger; 4 × MIC, 1 h): 4.00 Log10 CFU/mL | Viable counts in Log10 CFU/mL (Aspergillus niger; 4 × MIC, 2 h): 4.48 Log10 CFU/mL | Viable counts in Log10 CFU/mL (Aspergillus niger; 4 × MIC, 4 h): 3.60 Log10 CFU/mL | Viable counts in Log10 CFU/mL (Aspergillus niger; 4 × MIC, 6 h): 3 Log10 CFU/mL | Viable counts in Log10 CFU/mL (Aspergillus niger; 4 × MIC, 24 h): <2 Log10 CFU/mL | Viable counts in Log10 CFU/mL (Aspergillus niger; 4 × MIC, 0 h): 5.60 Log10 CFU/mL
